Results taken from patent US20070014845A1, “Liposomal delivery vehicle for hydrophobic drugs” (priority 2005, published 2007).

How the values were obtained:
[1] = cited from earlier work
[2] = Solubility of RWJ-416457 in hydroxypropyl-β-cyclodextrin and sulfobutylether-β-cyclodextrin solutions (HPLC); format: physicochemical
Experimental: Various liposomal formulations were prepared to perform supporting and illustrative studies. […] The solubility of the drug in the cyclodextrin solutions was determined.
The solubility of an antimicrobial oxazolidinone drug identified as RWJ-416457 in 40 w/v % hydroxylpropyl-β-cyclodextrin and in 20 w/v % sulfobutylether-β-cyclodextrin under various conditions of pH, temperature, and incubation time was determined as follows. About 15 mgs of drug was added to 5 mL of each cyclodextrin solution followed by incubation under one of three conditions: (1) with stirring at 45° C. for 2 hours; (2) with stirring at 45° C. for 2 hours followed by stirring at room temperature (25° C.) for 3 days; or (3) with stirring at room temperature (25° C.) for 3 days. After incubation, any non-solubilized drug crystals were removed either by centrifugation using a bench top centrifuge at 3000 rpm or by filtration using a hand-held syringe with a filter with 0.2 μm pore size. The drug concentration of the supernatant or the filtrate was then determined by high performance liquid chromatography (HPLC).

[3] = Drug concentration of filtered drug/cyclodextrin hydration solutions (HPLC); format: physicochemical; settings: for drug concentration of filtered cyclodextrin solution: 10 mM histidine, 15 mM NaCl, pH 6.8, incubated 45° C. for 2 hours; for final drug concentration assayed by HPLC: 50 w/v % hydroxypropyl-β-cyclodextrin
Experimental: A similar solution containing 30% cyclodextrin was prepared by dissolving 30 g of hydroxypropyl-β-cyclodextrin in a 100 mL of water. The solution also contained 10 mM histidine and 15 mM NaCl. The final osmolality was 451 mOsm/kg (Wescor Osmometer) and the pH was 6.8. Drug (RWJ-425457) was added to the cyclodextrin solution, incubated (45° C. for 2 hours), and filtered, to yield a drug concentration of 9.9 mg/mL.
A similar solution containing 20% cyclodextrin was prepared by dissolving 20 g of hydroxypropyl-β-cyclodextrin in a 100 mL of buffer (10 mM histidine and 15 mM NaCl). The final osmolality was 199 mOsm/kg (Wescor Osmometer) and the pH was 6.8. Drug (RWJ-425457) was added to the cyclodextrin solution, incubated (45° C. for 2 hours) and filtered, to yield a drug concentration of 4.8 mg/mL.
A liposome formulation with no cholesterol, formulation no. 11, was also prepared as follows. A lipid mixture of HSPC/mPEG-DSPE 95:5 mol/mol (11.3 g HSPC and 2.1 g mPEG-DSPE) was solubilized in 10 mL ethanol at about 65 ° C. A 50% hydroxypropyl-β-cyclodextrin solution was made by solubilizing 50 g of the cyclodextrin in a total volume of 100 mL water. The osmolality was 720 mOsm/kg and the pH was 7.4. In a separate container 1.004 g of drug (RWJ416457) was placed in 100 mL of the 50 w/v % cyclodextrin solution. The mixture was stirred for 1 hour at 45° C. and then 3 hours at room temperature followed by filtration to removw any un-dissolved drug in the solution. The final drug concentration assayed by HPLC was 7.58 mg/mL and the osmolality of the hydration medium was 771 mOsm/kg. The lipid solution was then mixed with 90 mL of the drug/cyclodextrin solution (pre-warmed to 65° C.) followed by stirring at 65° C. for 1 hour to form a suspension of liposomes, identified as formulation no. 11.
A 50% hydroxypropyl-β-cyclodextrin solution was made by solubilizing 50.0 g of the cyclodextrin in a total volume of 100 mL water. The final osmolality was 720 mOsm/kg (Wescor Osmometer) and the pH was 7.4. In a separate container 1.004 g of drug (RWJ416457) was placed in 100 mL of the 50 w/v % cyclodextrin solution. The mixture was stirred for 4 hours at room temperature followed by filtration to remove any drug in the external solution. The final drug concentration assayed by HPLC was 7.58 mg/mL and osmolality was 771 mOsm/kg.

Compound: Randomly Methylated β-cyclodextrin
- Solubility in water [1]: >500 mg/mL

Compound: β-Cyclodextrin sulfobutyl ether sodium salt
- Solubility in water [1]: >500 mg/mL

Compound: 2-Hydroxypropyl-β-cyclodextrin
- Solubility in water [1]: >600 mg/mL

Compound: OC[C@H]1O[C@@H]2O[C@H]3[C@H](O)[C@@H](O)[C@@H](O[C@H]4[C@H](O)[C@@H](O)[C@@H](O[C@H]5[C@H](O)[C@@H](O)[C@@H](O[C@H]6[C@H](O)[C@@H](O)[C@@H](O[C@H]7[C@H](O)[C@@H](O)[C@@H](O[C@H]8[C@H](O)[C@@H](O)[C@@H](O[C@H]9[C@H](O)[C@@H](O)[C@@H](O[C@H]%10[C@H](O)[C@@H](O)[C@@H](O[C@H]1[C@H](O)[C@H]2O)O[C@@H]%10CO)O[C@@H]9CO)O[C@@H]8CO)O[C@@H]7CO)O[C@@H]6CO)O[C@@H]5CO)O[C@@H]4CO)O[C@@H]3CO [δ-cyclodextrin]
- water solubility (at 25° C., g/100 mL) ([1]; at 25° C.): 8.19 g/100 mL

Compound: 2-Hydroxypropyl-γ-cyclodextrin
- Solubility in water [1]: >500 mg/mL

Compound: CC(=O)NC[C@H]1CN(c2ccc(N3Cc4cn(C)nc4C3)c(F)c2)C(=O)O1 [RWJ-416457]
- Solubility of RWJ-416457 ([2]; Sample 1, pH 8.54, HP-β-CD 40%, 3 days RT, Filter): 8.13 mg/mL
- Solubility of RWJ-416457 ([2]; Sample 2, pH 8.54, HP-β-CD 40%, 45° C. 2 hrs + 3 days RT, Filter): 9.46 mg/mL
- Solubility of RWJ-416457 ([2]; Sample 2, pH 8.54, HP-β-CD 40%, 45° C. 2 hrs, Centrifuge): 9.37 mg/mL
- Solubility of RWJ-416457 ([2]; Sample 2, pH 8.54, HP-β-CD 40%, 45° C. 2 hrs, Filter): 9.26 mg/mL
- Solubility of RWJ-416457 ([2]; Sample 3, pH 3.21, HP-β-CD 40%, 3 days RT, Filter): 7.6 mg/mL
- Solubility of RWJ-416457 ([2]; Sample 4, pH 3.21, HP-β-CD 40%, 45° C. 2 hrs + 3 days RT, Filter): 9.08 mg/mL
- Solubility of RWJ-416457 ([2]; Sample 4, pH 3.21, HP-β-CD 40%, 45° C. 2 hrs, Centrifuge): 9.23 mg/mL
- Solubility of RWJ-416457 ([2]; Sample 4, pH 3.21, HP-β-CD 40%, 45° C. 2 hrs, Filter): 9.16 mg/mL
- Solubility of RWJ-416457 ([2]; Sample 5, pH 4.58, HP-β-CD 40%, 3 days RT, Filter): 7.21 mg/mL
- Solubility of RWJ-416457 ([2]; Sample 6, pH 4.58, HP-β-CD 40%, 45° C. 2 hrs + 3 days RT, Filter): 9.1 mg/mL
- Solubility of RWJ-416457 ([2]; Sample 6, pH 4.58, HP-β-CD 40%, 45° C. 2 hrs, Centrifuge): 9.17 mg/mL
- Solubility of RWJ-416457 ([2]; Sample 6, pH 4.58, HP-β-CD 40%, 45° C. 2 hrs, Filter): 9.16 mg/mL
- Solubility of RWJ-416457 ([2]; Sample 7, pH 6.94, SBE-β-CD 20%, 45° C. 2 hrs + 3 days RT, Filter): 4.45 mg/mL
- Solubility of RWJ-416457 ([2]; Sample 7, pH 6.94, SBE-β-CD 20%, 45° C. 2 hrs, Centrifuge): 4.75 mg/mL
- Solubility of RWJ-416457 ([2]; Sample 7, pH 6.94, SBE-β-CD 20%, 45° C. 2 hrs, Filter): 4.55 mg/mL
- drug solubility ([2]; in 20% sulfobutylether-β-cyclodextrin (summary of Example 1A)): above 4.5 mg/mL
- solubility ([2]; in 20 w/v % sulfobutylether-β-cyclodextrin at 45° C.): about 4.5 mg/mL
- drug solubility ([2]; in 40 w/v % hydroxypropyl-β-cyclodextrin (summary of Example 1A)): above 9 mg/mL
- solubility ([2]; in 40 w/v % hydroxypropyl-β-cyclodextrin at 45° C.): about 9.1 mg/mL
- solubility ([2]; in 40 w/v % hydroxypropyl-β-cyclodextrin at room temperature): about 7.6 mg/mL
- drug concentration of filtered cyclodextrin solution ([3]; 20% hydroxypropyl-β-cyclodextrin): 4800 µg/mL
- drug concentration of filtered cyclodextrin solution ([3]; 30% hydroxypropyl-β-cyclodextrin): 9900 µg/mL
- final drug concentration assayed by HPLC ([3]; stirred 1 hour at 45° C. then 3 hours at room temperature): 7.58 mg/mL
- final drug concentration assayed by HPLC ([3]; stirred 4 hours at room temperature): 7.58 mg/mL
